Experimental data reported in article PMC10287695, “Non-covalent inhibitors of thioredoxin glutathione reductase with schistosomicidal activity in vivo” (Nature Communications, 2023).
Several values for one entry are separate records, joined by “and”; a condition that tells them apart may be missing. Equal entries are not always repeated.

Columns and labels:
[1] = target: T1, Human GR (Homo sapiens, UniProt P00390); assay: Human GR enzyme inhibition (GSSG reduction, NADPH oxidation); format: biochemical; settings: 66.7 µM
T1 construct: made in house
T1 sequence (P00390 44-522): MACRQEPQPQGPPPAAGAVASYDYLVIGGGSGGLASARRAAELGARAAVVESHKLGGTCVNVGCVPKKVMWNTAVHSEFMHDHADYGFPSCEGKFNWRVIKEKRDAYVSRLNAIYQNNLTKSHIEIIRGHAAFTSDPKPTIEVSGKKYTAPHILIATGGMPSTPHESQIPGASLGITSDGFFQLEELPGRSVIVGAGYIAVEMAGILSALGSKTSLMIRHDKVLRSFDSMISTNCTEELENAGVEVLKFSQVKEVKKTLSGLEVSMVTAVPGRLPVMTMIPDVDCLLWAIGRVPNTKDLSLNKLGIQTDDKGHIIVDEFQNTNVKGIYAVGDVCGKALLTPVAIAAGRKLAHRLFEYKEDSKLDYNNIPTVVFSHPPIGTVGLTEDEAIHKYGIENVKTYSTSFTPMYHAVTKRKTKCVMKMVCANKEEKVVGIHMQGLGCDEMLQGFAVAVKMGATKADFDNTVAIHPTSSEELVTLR
Method: Recombinant TGR, human TrxR1, B. malayi (Bm)TrxR and human GR proteins were expressed and purified as described[20],[69],[79]. The codon optimized sequence for P. falciparum (PfTrxR, https://www.ncbi.nlm.nih.gov/protein/CAA60574.1/) with an N-terminal 6-His tag was synthesized and inserted into pET15b (GenScript) and expressed in BL21 (DE3) cells and purified as described for human GR[20]. TGR and TrxR enzyme inhibition assays were performed in triplicate at 25 °C as described[20] in 0.1 M potassium phosphate (pH 7.4), 10 mM EDTA, 100 µM NADPH and 0.01% Tween-20. TGR, human TrxR1 and BmTrxR (all at 4 nM) and PfTrxR (50 nM) were preincubated with the compounds for 15 min. The reaction was started with addition of an equal volume of DTNB (6 mM) and NADPH (100 µM) and the increase in A412 during the first 3 min was recorded. […] […] Activity was initiated with the addition of 1 mM GSSG and 100 μM NADPH and initial rates of NADPH oxidation were monitored at 340 nm. The reactions were done in triplicate. The IC50 was calculated in GraphPad Prism.

[2] = target: BmTrxR (Brugia malayi, UniProt A0A1I9G0T9); assay: B. malayi TrxR enzyme inhibition; format: biochemical
Method: Recombinant TGR, human TrxR1, B. malayi (Bm)TrxR and human GR proteins were expressed and purified as described[20],[69],[79]. The codon optimized sequence for P. falciparum (PfTrxR, https://www.ncbi.nlm.nih.gov/protein/CAA60574.1/) with an N-terminal 6-His tag was synthesized and inserted into pET15b (GenScript) and expressed in BL21 (DE3) cells and purified as described for human GR[20]. […] The reaction was started with addition of an equal volume of DTNB (6 mM) and NADPH (100 µM) and the increase in A412 during the first 3 min was recorded. […] Activity was initiated with the addition of 1 mM GSSG and 100 μM NADPH and initial rates of NADPH oxidation were monitored at 340 nm. The reactions were done in triplicate. The IC50 was calculated in GraphPad Prism.

[3] = target: T2, PfTrxR (Plasmodium falciparum, UniProt Q25861); assay: P. falciparum TrxR enzyme inhibition; format: biochemical
T2 construct: 6-His (N); made in house; host or cells: E. coli BL21 (DE3)
T2 sequence (Q25861 1-541): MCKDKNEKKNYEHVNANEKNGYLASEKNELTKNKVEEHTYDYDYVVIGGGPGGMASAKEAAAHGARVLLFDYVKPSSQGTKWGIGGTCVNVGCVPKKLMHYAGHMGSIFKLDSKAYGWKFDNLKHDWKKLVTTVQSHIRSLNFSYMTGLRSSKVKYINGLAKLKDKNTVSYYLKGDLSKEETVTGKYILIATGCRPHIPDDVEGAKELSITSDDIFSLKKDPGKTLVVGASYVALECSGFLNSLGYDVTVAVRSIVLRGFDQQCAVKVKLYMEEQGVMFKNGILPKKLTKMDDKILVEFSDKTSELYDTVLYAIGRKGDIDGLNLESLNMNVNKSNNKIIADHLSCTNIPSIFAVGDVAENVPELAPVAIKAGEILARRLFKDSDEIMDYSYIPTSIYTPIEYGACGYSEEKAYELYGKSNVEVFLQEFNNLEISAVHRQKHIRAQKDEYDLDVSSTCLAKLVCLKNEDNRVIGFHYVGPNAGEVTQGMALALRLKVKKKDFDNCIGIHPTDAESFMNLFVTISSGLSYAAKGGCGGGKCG
Method: Recombinant TGR, human TrxR1, B. malayi (Bm)TrxR and human GR proteins were expressed and purified as described[20],[69],[79]. The codon optimized sequence for P. falciparum (PfTrxR, https://www.ncbi.nlm.nih.gov/protein/CAA60574.1/) with an N-terminal 6-His tag was synthesized and inserted into pET15b (GenScript) and expressed in BL21 (DE3) cells and purified as described for human GR[20]. TGR and TrxR enzyme inhibition assays were performed in triplicate at 25 °C as described[20] in 0.1 M potassium phosphate (pH 7.4), 10 mM EDTA, 100 µM NADPH and 0.01% Tween-20. TGR, human TrxR1 and BmTrxR (all at 4 nM) and PfTrxR (50 nM) were preincubated with the compounds for 15 min. The reaction was started with addition of an equal volume of DTNB (6 mM) and NADPH (100 µM) and the increase in A412 during the first 3 min was recorded. […] The reaction was preincubated for 15 min. Activity was initiated with the addition of 1 mM GSSG and 100 μM NADPH and initial rates of NADPH oxidation were monitored at 340 nm. The reactions were done in triplicate. The IC50 was calculated in GraphPad Prism.

[4] = system: S. mansoni adult worms; assay: GSH/GSSG ratio in ex vivo adult worms; format: cell-based; settings: 1 hr; second data set (r136-144), baseline 63.5617, DMSO 63.4928
Method: We assessed GSH/GSSG levels experimentally by treating S. mansoni adult worms with 50 µM of compounds, or respective controls 5 µM Auranofin, 50 µM PZQ or 50 µM MZM and 0.01% DMSO for 3 h. Worm homogenate was prepared by washing three times with PBS to remove residual compounds and ten volumes of ice cold 5% sulfosalicylic acid was added. Worms were manually homogenized on ice using VWR Pellet Mixer Adaptor. The worm suspension was centrifuged at 14000 × g, 4 °C for 10 min and the acid supernatants transferred. An equal volume of ice-cold neutralization buffer (500 mM HEPES, pH 8.0) was added to the acid supernatants.
GSH/GSSG assay was performed by diluting the acid supernatant (5-fold) with ice-cold dilution buffer (250 mM HEPES, pH 7.5). Using white opaque luminescence plate on ice, 25 µl of the diluted worm acid supernatant was added each well in triplicates. Total glutathione lysis reagent and GSSG lysis reagent, which contains alkylating agent N-ethylmaleimide (25 mM) were prepared following manufactures protocol and added to respective wells along with blank for background. Total glutathione lysis reagent or oxidized glutathione lysis reagent (25 µl) was added to respective wells containing worm acid supernatants and the plate was shaken for 5 min. Luciferin generation reagent (LGR) (50 µl) was added to all wells, briefly shaken and incubated at room temperature for 30 min. Luciferin detection reagent (LDR) (100 µl) was added to all wells, briefly shaken and incubated for 15 min at room temperature and the luminescence measured using microplate imager (BioTek Cytation3). GSH/GSSH ratio for DMSO control and compounds were calculated using (Net DMSO total glutathione RFU) – (Net DMSO GSSG RFU)/ (Net DMSO GSSG RFU)/2 and (Net inhibitor total glutathione RFU) – (Net inhibitor GSSG RFU)/ (Net inhibitor GSSG RFU)/2 respectively.

[5] = target: T3, TGR (Schistosoma mansoni, UniProt Q962Y6); assay: Reversibility by jump dilution; format: biochemical
T3 construct: made in house
T3 sequence (Q962Y6 1-598): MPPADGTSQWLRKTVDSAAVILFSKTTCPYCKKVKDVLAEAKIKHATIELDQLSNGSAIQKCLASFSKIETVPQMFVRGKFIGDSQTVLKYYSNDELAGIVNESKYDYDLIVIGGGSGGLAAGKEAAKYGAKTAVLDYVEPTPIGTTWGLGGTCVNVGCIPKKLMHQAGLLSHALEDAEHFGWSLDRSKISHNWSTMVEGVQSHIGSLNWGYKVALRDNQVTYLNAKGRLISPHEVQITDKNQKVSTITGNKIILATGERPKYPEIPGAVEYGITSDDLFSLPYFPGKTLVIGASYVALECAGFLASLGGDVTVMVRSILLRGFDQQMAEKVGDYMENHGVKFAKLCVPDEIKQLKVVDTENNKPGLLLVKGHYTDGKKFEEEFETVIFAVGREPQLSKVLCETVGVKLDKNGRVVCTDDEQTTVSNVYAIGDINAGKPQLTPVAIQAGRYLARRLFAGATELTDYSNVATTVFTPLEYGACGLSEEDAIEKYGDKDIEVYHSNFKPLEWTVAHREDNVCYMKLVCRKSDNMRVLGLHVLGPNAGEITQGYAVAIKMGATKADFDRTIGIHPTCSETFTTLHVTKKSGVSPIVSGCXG
Method: A reaction of 370 nM TGR, 100 µM NADPH, and 250 µM inhibitor was incubated for 15 min at room temperature. A 100x dilution of the reaction was made and the activity was determined immediately and after 60 min.

[6] = target: T4, TGR (Schistosoma mansoni, UniProt Q962Y6, X597U); assay: NADPH consumption (oxidase activity); format: biochemical, S. mansoni
T4 construct: made in house
Method: TRi-1, Stattic (both at 50 µM) and AF (20 µM) were incubated with 1 ml of 500 nM TGR and 100 µM NADPH in TGR reaction buffer for 30 min. The samples were desalted using a Zeba spin desalting column (Thermo Fisher Scientific) and 100 µl of the desalted sample was combined with 100 µl of 100 µM NADPH. NADPH consumption was monitored at 340 nm in triplicate. Compounds 1, 4, 6, and 7 (50 µM) were tested in the same fashion without the desalting step and with a first incubation step of 30 min for 6 and 7 and 2 h for 1 and 4.

[7] = target: T4, TGR; assay: Superoxide production (pyrogallol red); format: biochemical, S. mansoni; settings: replicates
Method: The production of superoxide by TGR was determined by monitoring reaction of superoxide with pyrogallol red[80]. Briefly, a 1 ml reaction mix (500 nM TGR, 100 µM NADPH, and 20–50 µM inhibitor) was incubated at room temperature for 30 min for fast inhibitors, or 2 h for slow inhibitors. For irreversible inhibitor controls TRi-1 (synthesized in house as reported[45]), Stattic (Cayman Chemical), and AF (Cayman Chemical), the samples were desalted using a Zeba spin desalting column. 100 µL of sample was combined with pyrogallol buffer with and without superoxide dismutase (SOD) (50 µM pyrogallol red, 300 µM NADPH; ± 10 units SOD). The reaction was measured at A340 and A540 simultaneously for 2 h.

[8] = D0: diluted 1:100, activity determined immediately, list for plotting
[9] = D60: diluted 1:100, activity determined after 60 min, list for plotting

Chain of BmTrxR (A0A1I9G0T9 entry or part of it, added parts left off): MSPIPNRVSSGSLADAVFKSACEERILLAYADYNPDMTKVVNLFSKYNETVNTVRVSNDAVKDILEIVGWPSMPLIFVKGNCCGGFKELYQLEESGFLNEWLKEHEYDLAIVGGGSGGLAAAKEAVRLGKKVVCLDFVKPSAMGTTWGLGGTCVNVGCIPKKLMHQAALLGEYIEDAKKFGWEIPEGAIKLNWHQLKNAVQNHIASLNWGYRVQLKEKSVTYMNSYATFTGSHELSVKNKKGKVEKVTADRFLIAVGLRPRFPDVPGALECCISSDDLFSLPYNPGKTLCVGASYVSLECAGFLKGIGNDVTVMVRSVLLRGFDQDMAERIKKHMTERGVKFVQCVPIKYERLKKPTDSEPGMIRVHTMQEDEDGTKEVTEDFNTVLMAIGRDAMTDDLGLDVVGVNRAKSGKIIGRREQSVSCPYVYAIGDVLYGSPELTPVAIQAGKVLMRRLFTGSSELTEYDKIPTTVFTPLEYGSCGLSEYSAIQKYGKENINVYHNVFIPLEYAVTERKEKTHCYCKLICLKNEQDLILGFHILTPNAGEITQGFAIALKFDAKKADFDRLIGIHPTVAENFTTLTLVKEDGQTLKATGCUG

C[C@@H]1[C@H]2C[C@@H](C[C@H]1NC(=O)Cc1nc3ccccc3n1C1CCCCC1)C2(C)C [Compound 10]
Human GR (inhibition at 66.7 µM) [1]: n.i.
inhibition at 1 µM ([2]; BmTrxR, 1 µM compound, mean of 3 replicates): 27.9%
inhibition at 5 µM ([2]; BmTrxR, 5 µM compound, mean of 3 replicates): 68%
inhibition at 15 µM ([2]; BmTrxR, 15 µM compound, mean of 3 replicates): 100%
inhibition at 30 µM ([2]; BmTrxR, 30 µM compound, mean of 3 replicates): 108%
inhibition at 66.7 µM ([2]; BmTrxR, 66.7 µM compound, mean of 3 replicates): 106%
IC50 ([2]; read-out: BmTrxR IC50): 2.5 µM
IC50 [3]: 32.9 ± 4.46 µM
inhibition at 1 µM [3]: 3.2%
inhibition at 5 µM [3]: 6.15%
inhibition at 15 µM [3]: 29.7%
inhibition at 30 µM [3]: 48.5%
inhibition at 66.7 µM [3]: 66.9%
Ratio GSH/GSSG [4]: 63.3816

O=[N+]([O-])c1ccc2c(c1)S(=O)(=O)C=C2 [Stattic, reference compound]
reversibility of TGR inhibition ([5]; 250 µM inhibitor, 100-fold jump dilution): irreversible
% Activity (ID list), D0 [5, 8]: 1.1% and 0.9% and -0.249%
% Inhibition (ID list), D0 [5, 8]: 98.9% and 99.1% and 100.2%
% Activity (ID list), D60 [5, 9]: -0.15% and 2.9% and 1.8%
% Inhibition (ID list), D60 [5, 9]: 100.1% and 97.1% and 98.2%
% Activity, 0 min ([5]; [0, D0]: 15 min preincubation inhibitor + TGR + NADPH, diluted 1:100, then activity determined immediately, relative to DMSO): 1.12% and 0.8821% and -0.2494%
% Activity, 60 min ([5]; [60, D60]: 15 min preincubation inhibitor + TGR + NADPH, diluted 1:100, then activity determined after 60 min, relative to DMSO): -0.1498% and 2.864% and 1.829%
Inhibitor (rate), -15 ([5]; [-15]: 15 min preincubation inhibitor + TGR + NADPH, then activity determined, raw rate, replicates): 0.0007 and 0.0003 and -0.0004
% Activity, -15 ([5]; [-15]: 15 min preincubation inhibitor + TGR + NADPH, then activity determined, relative to DMSO, replicates): 1.077% and 0.4412% and -0.5874%
% Inhibition (ID list) ([5]; before dilution (-15), list for plotting): 100.5% and 100.0% and 98.7%
NADPH consumption by TGR after exposure [6]: converted TGR to a pro-oxidant enzyme
NADPH consumption (rate/ΔOD340) ([6]; replicates): -0.002179 and -0.002159 and -0.002209
Superoxide production, Pyrogallol red consumption monitored ΔA540 ([7]; condition not given): -0.005958 and -0.005844 and -0.006065
Superoxide production, Pyrogallol red consumption monitored ΔA540 ([7]; second of the two columns per substance (condition not given)): -6.328e-5 and -6.968e-5 and -6.397e-5
